Consider 23 compounds from PubChem BioAssay AID192 (DTP/NCI, 2004).

The test deals with BDF1 mice, B16 melanoma ip, median survival T/C. Nature of the test: NCI In Vivo Anticancer Drug Screen. Data for tumor model B16 Melanoma (intraperitoneal) in B6D2F1 (BDF1) mice. Particulars: endpoint: median survival time, higher = longer survival. An outline of the steps: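 In this screen, activity was judged from survival or tumor size in treated versus vehicle-treated tumor-bearing mice, reported as T/C.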

Setting [1] is: dose: 6.25 mg/kg/injection, schedule: Q01DX009 (ip), vehicle: saline with Tween-80.
The mark [2] stands for this setting: dose: 12.5 mg/kg/injection, schedule: Q01DX009 (ip), vehicle: saline with Tween-80.
[3] abbreviates: dose: 25.0 mg/kg/injection, schedule: Q01DX009 (ip), vehicle: saline with Tween-80.
The mark [4] stands for this setting: dose: 50.0 mg/kg/injection, schedule: Q01DX009 (ip), vehicle: saline with Tween-80.
Where [5] appears, read: dose: 12.5 mg/kg/injection, schedule: Q01DX009 (ip), vehicle: saline.
[6] abbreviates: dose: 25.0 mg/kg/injection, schedule: Q01DX009 (ip), vehicle: saline.
[7] abbreviates: dose: 100.0 mg/kg/injection, schedule: Q01DX009 (ip), vehicle: saline with Tween-80.
Where [8] appears, read: dose: 200.0 mg/kg/injection, schedule: Q01DX009 (ip), vehicle: saline with Tween-80.
[9] abbreviates: dose: 25.0 mg/kg/injection, schedule: Q01DX009 (ip), vehicle: Klucel (hydroxypropylcellulose) (HPC).
Setting [10] is: dose: 50.0 mg/kg/injection, schedule: Q01DX009 (ip), vehicle: Klucel (hydroxypropylcellulose) (HPC).
The mark [11] stands for this setting: dose: 75.0 mg/kg/injection, schedule: Q01DX009 (ip), vehicle: Klucel (hydroxypropylcellulose) (HPC).
Where [12] appears, read: dose: 100.0 mg/kg/injection, schedule: Q01DX009 (ip), vehicle: Klucel (hydroxypropylcellulose) (HPC).
The mark [13] stands for this setting: dose: 150.0 mg/kg/injection, schedule: Q01DX009 (ip), vehicle: Klucel (hydroxypropylcellulose) (HPC).
The mark [14] stands for this setting: dose: 200.0 mg/kg/injection, schedule: Q01DX009 (ip), vehicle: Klucel (hydroxypropylcellulose) (HPC).
[15] abbreviates: dose: 400.0 mg/kg/injection, schedule: Q01DX009 (ip), vehicle: Klucel (hydroxypropylcellulose) (HPC).
[16] abbreviates: dose: 6.25 mg/kg/injection, schedule: Q01DX009 (ip), vehicle: saline.
The mark [17] stands for this setting: dose: 50.0 mg/kg/injection, schedule: Q01DX009 (ip), vehicle: saline.

SMILES strings stand for the structures. Values joined by “and” are separate entries in the source; they are usually repeats but may differ in a detail not shown here. Equal entries are not always repeated. Inconclusive results and toxic doses are left out.

With `CCCCCCCCCCCCNCCC#N`, the T/C runs as follows: under setting [1], 100 % of control; under setting [2], 92 % of control; under setting [3], 91 % of control and 100 % of control; under setting [4], 89 % of control.

Regarding `N=C(N)SCc1c2ccccc2c(CSC(=N)N)c2ccccc12`, the T/C is, setting by setting: under setting [5], 238 % of control; under setting [6], 285 % of control.

Turning to `CC(C)CN(CCCCO)CC(C)C`, the T/C was 102 % of control under setting [4], 111 % of control under setting [7] and 98 % of control under setting [8].

Regarding `Oc1ccccc1C(Nc1nc2ccccc2s1)c1ccc2cccnc2c1O` (centres undefined), the T/C under setting [9] is 114 % of control; the T/C under setting [10] is 105 % of control and 119 % of control (2×); the T/C under setting [11] was 107 % of control; the T/C under setting [12] was 110 % of control and 119 % of control; the T/C under setting [13] was 97 % of control; the T/C under setting [14] is 124 % of control. Besides, the T/C under setting [15] was 152 % of control.

For `C1CCN(CN2CCCCC2)CC1`, the T/C under setting [5] was 97 % of control and the T/C under setting [6] was 93 % of control.

With `[Br][Pt].[NH-]CC[N-]CC[NH-]`, the T/C was 108 % of control (dose: 3.13 mg/kg/injection, schedule: Q01DX009 (ip), vehicle: saline); 90 % of control under setting [16]; 91 % of control under setting [5]; 91 % of control under setting [6].

On to `C=C1C(=O)O[C@@H]2[C@H](O)[C@@H](C)[C@@H]3C=CC(=O)[C@@]3(C)[C@H](OC(=O)C=C(C)C)[C@H]12`, for which the T/C is 104 % of control (dose: 2.5 mg/kg/injection, schedule: Q01DX009 (ip), vehicle: Klucel (hydroxypropylcellulose) (HPC)); 102 % of control (dose: 3.12 mg/kg/injection, schedule: Q01DX009 (ip), vehicle: saline); 119 % of control (dose: 5.0 mg/kg/injection, schedule: Q01DX009 (ip), vehicle: Klucel (hydroxypropylcellulose) (HPC)); 86 % of control under setting [16]; 113 % of control (dose: 10.0 mg/kg/injection, schedule: Q01DX009 (ip), vehicle: Klucel (hydroxypropylcellulose) (HPC)).

Take `CCCC(=O)NC1=C(N2CC2)C(=O)C(NC(=O)CCC)=C(N2CC2)C1=O`: the T/C reads like this: (dose: 1.0 mg/kg/injection, schedule: Q01DX009 (ip), vehicle: saline) 86 % of control; (dose: 2.0 mg/kg/injection, schedule: Q01DX009 (ip), vehicle: saline) 118 % of control.

Consider `CC(=O)[O][Hg][c]1s[c]([Hg][O]C(C)=O)[c]([Hg][O]C(C)=O)[c]1[Hg][O]C(C)=O`, for which the T/C reads like this: (dose: 0.75 mg/kg/injection, schedule: Q01DX009 (ip), vehicle: saline with Tween-80) 102 % of control; (dose: 1.5 mg/kg/injection, schedule: Q01DX009 (ip), vehicle: saline with Tween-80) 92 % of control; (dose: 3.0 mg/kg/injection, schedule: Q01DX009 (ip), vehicle: saline with Tween-80) 87 % of control; (dose: 6.0 mg/kg/injection, schedule: Q01DX009 (ip), vehicle: saline with Tween-80) 97 % of control.

Consider `CC1CC(C)(O)CC(C(O)CC2CC(=O)NC(=O)C2)C1=O` (centres undefined), for which the T/C reads like this: (dose: 0.98 mg/kg/injection, schedule: Q04DX003 (ip), vehicle: saline) 111 % of control; (dose: 1.4 mg/kg/injection, schedule: Q04DX003 (ip), vehicle: saline) 100 % of control; (dose: 2.0 mg/kg/injection, schedule: Q04DX003 (ip), vehicle: saline) 91 % of control; (dose: 2.86 mg/kg/injection, schedule: Q04DX003 (ip), vehicle: saline) 102 % of control.

As to `O=C(O)C(O)C(O)C(=O)O.O=C(O)C(O)C(O)C(=O)O.[O]=[V].[O]=[V]` (centres undefined), the T/C was 94 % of control under setting [5]; 100 % of control (dose: 12.5 mg/kg/injection, schedule: Q04DX003 (ip), vehicle: saline); 87 % of control under setting [6]; 100 % of control (dose: 25.0 mg/kg/injection, schedule: Q04DX003 (ip), vehicle: saline); 86 % of control (dose: 50.0 mg/kg/injection, schedule: Q04DX003 (ip), vehicle: saline).

Consider `CC(OCc1ccccc1)C(NC(=O)OC(C)(C)C)C(=O)O` (centres undefined), for which the T/C was 97 % of control under setting [1]; 98 % of control under setting [2]; 102 % of control under setting [3]; 88 % of control and 95 % of control under setting [4].

As for `COC(=O)C(CCCCN=Cc1ccccc1O)N=Cc1ccccc1O.[Ni]` (centres undefined), the T/C under setting [1] is 100 % of control; the T/C under setting [2] is 90 % of control; the T/C (dose: 12.5 mg/kg/injection, schedule: Q04DX003 (ip), vehicle: saline with Tween-80) was 95 % of control; the T/C under setting [3] is 95 % of control; the T/C (dose: 25.0 mg/kg/injection, schedule: Q04DX003 (ip), vehicle: saline with Tween-80) was 93 % of control.

`CC1C(=O)OCC2=CCN3CCC(OC(=O)C(C)C1(C)O)C23` (centres undefined): the T/C is, setting by setting: (dose: 5.0 mg/kg/injection, schedule: Q01DX009 (ip), vehicle: saline) 109 % of control; (dose: 10.0 mg/kg/injection, schedule: Q01DX009 (ip), vehicle: saline) 111 % of control; under setting [5], 123 % of control; (dose: 20.0 mg/kg/injection, schedule: Q01DX009 (ip), vehicle: saline) 111 % of control; under setting [6], 121 % of control; (dose: 40.0 mg/kg/injection, schedule: Q01DX009 (ip), vehicle: saline) 109 % of control. Also, the T/C under setting [17] was 121 % of control.

Consider `C[N+](C)([O-])CCC=C1c2ccccc2CCc2ccccc21`, for which the T/C reads like this: under setting [16], 95 % of control; under setting [5], 90 % of control; under setting [17], 90 % of control.

For the compound `O=C(Nc1ccccc1)OCCOc1ccc(Cl)cc1Cl`, the T/C by setting is: under setting [12], 96 % of control; under setting [14], 114 % of control; under setting [15], 110 % of control.

Regarding `CNC(=O)OCc1c(COC(=O)NC)c(-c2ccccc2)n(C)c1-c1ccccc1`, the T/C (dose: 3.12 mg/kg/injection, schedule: Q01DX009 (ip), vehicle: distilled water + Tween-80) was 161 % of control; the T/C (dose: 6.25 mg/kg/injection, schedule: Q01DX009 (ip), vehicle: distilled water + Tween-80) is 159 % of control; the T/C (dose: 12.5 mg/kg/injection, schedule: Q01DX009 (ip), vehicle: distilled water + Tween-80) was 166 % of control; the T/C (dose: 25.0 mg/kg/injection, schedule: Q01DX009 (ip), vehicle: distilled water + Tween-80) is 206 % of control.

As to `CSc1nc(C)cc(Cl)n1`, the T/C under setting [4] is 104 % of control, the T/C under setting [7] is 113 % of control and the T/C under setting [8] was 90 % of control.

In the case of `O=C(Cl)C1(Br)CC2c3ccccc3C1([N+](=O)[O-])c1ccccc12` (centres undefined), the T/C runs as follows: (dose: 12.5 mg/kg/injection, schedule: Q01DX009 (ip), vehicle: Klucel (hydroxypropylcellulose) (HPC)) 100 % of control; under setting [9], 97 % of control; under setting [10], 97 % of control; under setting [12], 91 % of control; under setting [14], 88 % of control.

With `C1=CC2(OCCO2)C2CC=CC3(OCCO3)C2C1` (centres undefined), the T/C was 104 % of control under setting [10] and 97 % of control under setting [12].

Consider `CCSc1nc(C)cc(Cl)n1`, for which the T/C reads like this: under setting [4], 100 % of control; under setting [7], 104 % of control; under setting [8], 88 % of control.

Take `COc1cccc2c1C(=O)c1c(O)c3c(c(O)c1C2=O)C[C@@](O)(/C(C)=N\NC=O)C[C@@H]3OC1CC(N)C(O)C(C)O1` (some centres undefined): the T/C runs as follows: (dose: 0.38 mg/kg/injection, schedule: Q01DX009 (ip), vehicle: saline) 112 % of control; (dose: 0.75 mg/kg/injection, schedule: Q01DX009 (ip), vehicle: saline) 117 % of control; (dose: 1.5 mg/kg/injection, schedule: Q01DX009 (ip), vehicle: saline) 150 % of control; (dose: 3.0 mg/kg/injection, schedule: Q01DX009 (ip), vehicle: saline) 174 % of control; (dose: 6.0 mg/kg/injection, schedule: Q01DX009 (ip), vehicle: saline) 216 % of control; (dose: 12.0 mg/kg/injection, schedule: Q01DX009 (ip), vehicle: saline) 211 % of control.

Turning to `Cc1c(Cl)cccc1NC(=O)Nc1ccccc1Cl`, the T/C under setting [11] was 106 % of control and the T/C under setting [13] is 95 % of control.
